In patent publication US20230144211A1, “ANTIFOLATE LINKER-DRUGS AND ANTIBODY-DRUG CONJUGATES” (Byondis B.V., priority 2020, published 2023):

Legend:
Assay in all cases: In vitro cell viability assay (CellTiter-Glo, 6 days)
AU-565 cells = format: cell-based, human
Description: (§1) FaDu, BxPC-3, HeLa, MV4-11, and RAJI cell lines were obtained from Deutsche Sammlung von Mikroorganismen und Zellkulturen (Leipzig, Germany). Jurkat NucLight Red cells were obtained from Essen BioScience Inc. (Ann Arbor, Mich., USA). SK-BR-3 and SK-OV-3 cells were cultured in McCoys 5A medium (Lonza; Walkersville, Md., USA) supplemented with 10% v/w Fetal Bovine Serum (FBS), Heat-inactivated (HI) (Gibco-Life Technologies; Carlsbad, Calif.) and 80 U/mL Pen/Strep (Gibco-Life Technologies), at 37° C. in a humidified incubator under 5% CO2 atmosphere. SW-620 cells were similarly maintained in RPMI 1640 medium (Lonza), containing 10% v/w FBS HI and 80 U/mL Pen/Strep. A-549 cells were similarly maintained in F-12K Nutrient Mixture (1×) (Gibco-Life Technologies) media supplemented with 80 U/mL Pen/Strep and 5% v/w FBS, which was Qualified (Q) (Gibco-Life Technologies). BT-474 and AU-565 cells were similarly maintained in RPMI 1640 medium (Lonza), containing 10% v/w FBS, which was Qualified (Q) (Gibco-Life Technologies), and 80 U/mL Pen/Strep. […] Jurkat NucLight Red cells were similarly maintained in RPMI 1640 medium (Lonza), containing 10% v/w FBS HI, 80 U/mL Pen/Strep and 0.5 μg/mL Puromycin (Gibco-Life Technologies). FaDu cells were cultured in EMEM medium (Lonza) supplemented with 10% v/w FBS HI (Gibco-Life Technologies), 1× GlutaMAX (Gibco-Life Technologies), and 80 U/mL Pen/Strep (Gibco-Life Technologies), at 37° C. in a humidified incubator under 5% CO2 atmosphere.
(§2) After an overnight incubation, 10 serial log 10 dilutions of the free drugs were made in DMSO (Sigma-Aldrich). These free drug dose-response curves were 10-times further diluted in complete growth medium. For the ADCs according to the invention 10 serial log 10 dilutions were made in complete growth medium. 10 μL of a composition comprising a free drug or an ADC according to the invention was added to the assay plate (final DMSO content for free drugs was 1%). […] […] Percentage cell survival was calculated by dividing the measured luminescence for each free drug or ADC according to the concentration with the average mean of untreated cells (1% or 0.1% DMSO control (for free drugs) or 100% complete growth medium (for ADCs)) multiplied by 100.
(§3) Curves were fitted by non-linear regression using the sigmoidal dose-response equation with variable slope (four parameters) using curve-fitting software (GraphPad Prism, version 9.4.0 for Windows, GraphPad, San Diego, Calif. or Electronic Laboratory Notebook (ELN) add-in BioAssay, version 19.1.0.0218, Perkin Elmer, Waltham, Mass.). Relative IC50 values were calculated as the concentration that gives a response halfway between bottom and top of the curve, when using a 4-parameter logistic fit. Data were reported as mean IC50 value of at least one experiment performed in duplicate.

SK-BR-3 cells = format: cell-based, human
Description: as §1, §2, §3

[1] = system: Jurkat NucLight Red cells; format: cell-based, human; conditions: free antifolate drugs
Description: as §1
(§4) After an overnight incubation, 10 serial log 10 dilutions of the free drugs were made in DMSO (Sigma-Aldrich). These free drug dose-response curves were 10-times further diluted in complete growth medium. For the ADCs according to the invention 10 serial log 10 dilutions were made in complete growth medium. 10 μL of a composition comprising a free drug or an ADC according to the invention was added to the assay plate (final DMSO content for free drugs was 1%). […] Cell viability was assessed after 6 days using a luminescent assay kit (CellTiter-Glo™ (CTG), Promega Corporation) according to the manufacturer's instructions. Percentage cell survival was calculated by dividing the measured luminescence for each free drug or ADC according to the concentration with the average mean of untreated cells (1% or 0.1% DMSO control (for free drugs) or 100% complete growth medium (for ADCs)) multiplied by 100.
as §3

A-549 cells = format: cell-based; conditions: Homo sapiens, A549; free antifolate drugs, Table 1a; $ steep hillslope
Description: Human tumor cell lines SK-BR-3, SW-620, A-549, BT-474, Jurkat Clone E6-1, AU-565, and SK-OV-3 were obtained from American Type Culture Collection (Rockville, Md., USA). FaDu, BxPC-3, HeLa, MV4-11, and RAJI cell lines were obtained from Deutsche Sammlung von Mikroorganismen und Zellkulturen (Leipzig, Germany). Jurkat NucLight Red cells were obtained from Essen BioScience Inc. (Ann Arbor, Mich., USA). SK-BR-3 and SK-OV-3 cells were cultured in McCoys 5A medium (Lonza; Walkersville, Md., USA) supplemented with 10% v/w Fetal Bovine Serum (FBS), Heat-inactivated (HI) (Gibco-Life Technologies; Carlsbad, Calif.) and 80 U/mL Pen/Strep (Gibco-Life Technologies), at 37° C. in a humidified incubator under 5% CO2 atmosphere. SW-620 cells were similarly maintained in RPMI 1640 medium (Lonza), containing 10% v/w FBS HI and 80 U/mL Pen/Strep. A-549 cells were similarly maintained in F-12K Nutrient Mixture (1×) (Gibco-Life Technologies) media supplemented with 80 U/mL Pen/Strep and 5% v/w FBS, which was Qualified (Q) (Gibco-Life Technologies). BT-474 and AU-565 cells were similarly maintained in RPMI 1640 medium (Lonza), containing 10% v/w FBS, which was Qualified (Q) (Gibco-Life Technologies), and 80 U/mL Pen/Strep. Jurkat Clone E6-1, BxPC-3, HeLa, MV4-11, and RAJI cells were similarly maintained in RPMI 1640 medium (Lonza), containing 10% v/w FBS HI and 80 U/mL Pen/Strep. Jurkat NucLight Red cells were similarly maintained in RPMI 1640 medium (Lonza), containing 10% v/w FBS HI, 80 U/mL Pen/Strep and 0.5 μg/mL Puromycin (Gibco-Life Technologies). FaDu cells were cultured in EMEM medium (Lonza) supplemented with 10% v/w FBS HI (Gibco-Life Technologies), 1× GlutaMAX (Gibco-Life Technologies), and 80 U/mL Pen/Strep (Gibco-Life Technologies), at 37° C. in a humidified incubator under 5% CO2 atmosphere.
as §4, with “Cells in complete growth medium were plated in 96-well plates (90 μL/well) and incubated at 37° C., 5% CO2 at the following cell densities: 6500 SK-BR-3, 4000 SW-620, 2500 A-549, 10000 BT-474, 3000 Jurkat Clone E6-1, 5000 AU-565, 1250 FaDu, 1250 BxPC-3, 1000 HeLa, 7500 MV4-11, 1000 RAJI, 3000 Jurkat NucLight Red, and 4000 SK-OV-3 cells per well. After” for “After”
as §3

[2] = Homo sapiens, AU565, free antifolate drugs, Table 1b
[3] = Homo sapiens, SK-BR-3, free antifolate drugs, Table 1b, # no full dose-response curve
[4] = Homo sapiens, AU565, free antifolate drugs, Table 1c
[5] = Homo sapiens, SK-BR-3, free antifolate drugs, Table 1c
[6] = free antifolate drugs, Table 1c

SMILES	IC50 (SK-BR-3 cells; [3])	IC50 ([1]; Homo sapiens, Jurkat, Table 1b)	IC50 (SK-BR-3 cells; [5])	IC50 ([1]; Homo sapiens, Jurkat, Table 1c)	IC50 (AU-565 cells; [2])	IC50 (AU-565 cells; [4])	further results
CN(Cc1cnc2nc(N)nc(N)c2n1)c1ccc(C(=O)N[C@@H](CCCNC(=O)c2ccc(N)cc2-c2nn[nH]n2)C(=O)O)s1 [XC5, (S)-5-(4-amino-2-(2H-tetrazol-5-yl)benzamido)-2-(5-(((2,4-diaminopteridin-6-yl)methyl)(methyl)amino)thiophene-2-carboxamido)pentanoic acid]	–	–	–	–	–	–	IC50 (AU-565 cells; [6]): ~28 nM; IC50 (SK-BR-3 cells; [6]): ~100 nM; IC50 ([1]; Table 1c): ~30 nM
CN(Cc1cnc2nc(N)nc(N)c2n1)c1ccc(C(=O)N[C@@H](CCCNC(=O)c2ccc(N)cc2-c2nn[nH]n2)C(=O)O)s1 [XC9, (S)-5-(4-Amino-2-(2H-tetrazol-5-yl)benzamido)-2-(5-(((2,4-diaminopteridin-6-yl)methyl)(methyl)amino)thiophene-2-carboxamido)pentanoic acid]	–	–	–	–	–	–	IC50 (AU-565 cells; [6]): 1.95 nM; IC50 (SK-BR-3 cells; [6]): 3.77 nM; IC50 ([1]; Table 1c): 2.41 nM
Nc1ccc(-c2cn(CCC[C@H](NC(=O)c3ccc(NCc4cnc5nc(N)nc(N)c5n4)cc3)C(=O)O)nn2)c(C(=O)O)c1 [XR22, (S)-5-Amino-2-(1-(4-carboxy-4-(4-(((2,4-diaminopteridin-6-yl)methyl)amino)benzamido)butyl)-1H-1,2,3-triazol-4-yl)benzoic acid]	–	–	–	–	–	–	IC50 (AU-565 cells; Homo sapiens, AU565, free antifolate drugs, Table 1a): 0.9 nM; IC50 (SK-BR-3 cells; Homo sapiens, SK-BR-3, free antifolate drugs, Table 1a): 2.2 nM; IC50 (A-549 cells): ~2.5 nM
Nc1ccc(C(=O)NCCC[C@H](NC(=O)c2ccc(NCc3ccc4nc(N)nc(N)c4c3Cl)s2)C(=O)O)c(-c2nnn[nH]2)c1 [XT126, (S)-5-(4-Amino-2-(1H-tetrazol-5-yl)benzamido)-2-(5-(((2,4-diamino-5-chloroquinazolin-6-yl)methyl)amino)thiophene-2-carboxamido)pentanoic acid]	2.91 nM	5.01 nM	–	–	2.37 nM	–	–
Nc1ccc(C(=O)NCCC[C@H](NC(=O)c2ccc(CCc3cnc4nc(N)nc(N)c4n3)cc2)C(=O)O)c(-c2nnn[nH]2)c1 [XT128, (S)-5-(4-Amino-2-(1H-tetrazol-5-yl)benzamido)-2-(4-(2-(2,4-diaminopteridin-6-yl)ethyl)benzamido)pentanoic acid]	0.57 nM	0.61 nM	0.78 nM	0.71 nM	0.34 nM	0.36 nM	–
COc1cc(C(=O)N[C@@H](CCCNC(=O)c2ccc(N)cc2-c2nnn[nH]2)C(=O)O)ccc1NCc1cnc2nc(N)nc(N)c2n1 [XT132, (S)-5-(4-Amino-2-(1H-tetrazol-5-yl)benzamido)-2-(4-(((2,4-diaminopteridin-6-yl)methyl)amino)-3-methoxybenzamido)pentanoic acid]	2.15 nM	1.19 nM	–	–	0.97 nM	–	–

More lines, main results first:

IC50 (SK-BR-3 cells; [3])	IC50 ([1]; Homo sapiens, Jurkat, Table 1b)	IC50 (SK-BR-3 cells; [5])	IC50 ([1]; Homo sapiens, Jurkat, Table 1c)	SMILES	IC50 (AU-565 cells; [2])	IC50 (AU-565 cells; [4])	further results
25 nM	4.92 nM	–	–	Nc1ccc(C(=O)NCCC[C@H](NC(=O)c2ccc(OCc3cnc4nc(N)nc(N)c4n3)cc2)C(=O)O)c(-c2nn[nH]n2)c1 [AFD-001]	9.18 nM	–	–
20 nM	15 nM	–	–	Nc1ccc(C(=O)NCCC[C@H](NC(=O)c2ccc(NCc3cnc4nc(N)nc(N)c4n3)c(O)c2)C(=O)O)c(-c2nn[nH]n2)c1 [AFD-002]	14 nM	–	–
2.09 nM	1.4 nM	–	–	C#CCN(Cc1cnc2nc(N)nc(N)c2n1)c1ccc(C(=O)N[C@@H](CCCNC(=O)c2ccc(N)cc2-c2nn[nH]n2)C(=O)O)cc1 [AFD-003]	0.98 nM	–	–
–	–	0.67 nM	0.68 nM	Nc1ccc(C(=O)NCCC[C@H](NC(=O)c2ccc(NCc3cnc4nc(N)nc(N)c4n3)cc2O)C(=O)O)c(-c2nn[nH]n2)c1 [AFD-004]	–	0.37 nM	–
–	–	~22 nM	5.6 nM	Nc1ccc(C(=O)NCCC[C@H](NC(=O)c2ccc(SCc3cnc4nc(N)nc(N)c4n3)cc2)C(=O)O)c(-c2nn[nH]n2)c1 [AFD-005]	–	~8 nM	–
–	–	5.15 nM	5.98 nM	Nc1ccc(C(=O)NCCC[C@H](NC(=O)c2ccc(NCc3cnc4nc(N)nc(N)c4n3)c(N)c2)C(=O)O)c(-c2nn[nH]n2)c1 [AFD-006]	–	2.8 nM	–
–	–	1.06 nM	2.01 nM	Nc1ccc(C(=O)NCCC[C@H](NC(=O)c2ccc3c(c2)CCCN3Cc2cnc3nc(N)nc(N)c3n2)C(=O)O)c(-c2nn[nH]n2)c1 [AFD-007]	–	0.68 nM	–
–	–	1.5 nM	0.87 nM	Nc1ccc(C(=O)NCCC[C@H](NC(=O)c2ccc3c(c2)CCN3Cc2cnc3nc(N)nc(N)c3n2)C(=O)O)c(-c2nn[nH]n2)c1 [AFD-008]	–	0.76 nM	–
–	–	2.82 nM	1.96 nM	Nc1ccc(C(=O)NCCC[C@H](NC(=O)c2ccc3c(ccn3Cc3cnc4nc(N)nc(N)c4n3)c2)C(=O)O)c(-c2nn[nH]n2)c1 [AFD-009]	–	1.15 nM	–
–	–	2.4 nM	2.31 nM	Nc1ccc(C(=O)NCCC[C@H](NC(=O)c2ccc(NCc3cnc4nc(N)nc(N)c4n3)cc2N)C(=O)O)c(-c2nnn[nH]2)c1 [AFD-010]	–	1.17 nM	–
